Here are results for 7 molecules from PMC9556364, “The effect of rifampin on the pharmacokinetics of famitinib in healthy subjects” (Cancer Chemotherapy and Pharmacology, 2022).

One data set deals with T1, P-gp (Homo sapiens, UniProt P08183).
T1 construct: endogenous in cells; host or cells: Caco-2
As to the kind of experiment: In vitro P-gp interaction study in Caco-2 cells. The format is in vitro ADME. From the text:
Except as a strong CYP3A inducer, rifampin is also recognized as a substrate and inducer of permeability glycoprotein (P-gp), an important ATP-binding cassette transporter, upon multiple dosing. […] Therefore, the interaction between famitinib and P-gp as well as OATP needs to be considered, to evaluate whether the changes of famitinib exposure caused by the strong CYP3A inducer are affected.

For data set [1] the following is noted: cited from earlier work.
The next data set relates to CYP3A4. Set-up: method as in PMID 23126373. As to conditions: recombinant human isozymes, microsomal chemical inhibition; cited from earlier work.
Data set [2] in a line: Safety and tolerability (treatment emergent adverse events, CTCAE v5.0) in the DDI study. As to conditions: for Subjects with treatment-related TEAEs: famitinib alone Days 1–9 (1/21), rifampin alone Days 10–15 (3/21), combination Days 16–23 (4/20).
Procedure: Safety and tolerability were evaluated by monitoring vital signs, physical examination, laboratory tests, electrocardiogram (ECG) and adverse events (AEs). Vital signs, including body temperature, blood pressure (BP) and heart rate, were measured and ECG were performed during baseline period, before drug administration and at 4, 24, 48, 192 h after famitinib administration. Clinical laboratory tests were conducted at screening, day 9, 15, and prior to discharge. AEs, including all subjective symptoms reported by subjects and objective signs observed by clinical investigators, were collected after dosing throughout the study.
Safety parameters of the safety analysis sets were summarized using descriptive statistics. AEs were graded according to Common Terminology Criteria for Adverse Events (CTCAE, version 5.0) and coded using Medical Dictionary for Regulatory Activities (MedDRA, version 19.0) System Organ Class (SOC) and Preferred Terms (PT).
A short description of data set [3]: Drug-drug interaction study: plasma pharmacokinetics of single oral famitinib 25 mg alone and with steady-state rifampin 600 mg once daily (LC-MS/MS, noncompartmental analysis). As to conditions: for CL/F / AUC(0-t) / AUC(0-inf) / Cmax / k el: geometric mean (geometric CV, %); for AUC(0-t): AUC0–t; for AUC(0-inf): AUC0–∞; for Tmax: median (min, max); for k el: λz.
Procedure: The DDI study was an open-label, self-contrast study comprising the following two periods: period 1 (Days 1–9), administration of a single oral dose of famitinib 25 mg alone in the morning of study day 1; period 2 (Days 10–23), repeated administration of oral rifampin 600 mg once daily for 14 days in the morning of days 10–23, and co-administration of a single dose of famitinib 25 mg on Day 16. […] In the two periods, oral doses of famitinib were administered after an overnight fast (at least 10 h) with 240 mL room-temperature water. Subjects were forbidden to drink water within 1 h before and after taking famitinib, and the lunch and dinner were provided at 4 h and 8 h,, respectively, post-drug administration (Day 1, 16). In the second period, subjects received rifampin in the fasting state with 240 mL water and had regular meals 1 h after the dose. Cigarettes, caffeinated drinks and alcoholic products were prohibited during the whole trial period, and when the subjects stayed in the study center (Days 1–4, 10–23), the only food permitted was prepared and provided at predetermined times by the researchers.
Samples were centrifuged within 1 h at 1500xg for 10 min at 4℃ to separate the plasma, which was divided into two aliquots (drug monitoring at least 800ul and backup) and stored at – 80 °Cuntil analysis.
Plasma concentrations of famitinib were analysed using a validated liquid chromatography-tandem mass spectrometry (LC–MS/MS) method [9, 15] at Frontage Laboratories Co., Ltd (Shanghai, China). The calibration curve for famitinib covered ranges of 0.050-100 ng/ml. The low limit of qualification (LLOQ) was 0.050 ng/ml.
Pharmacokinetic (PK) parameters for famitinib in plasma were estimated by noncompartmental analysis using Phoenix WinNonlin (version 7.0, Pharsight Corporation, St Louis, MO, USA). The primary endpoints were the maximum plasma famitinib concentration (Cmax), the area under the plasma concentration–time curve from time 0 to the last measured time point (AUC0–t), and the area under the plasma concentration–time curve from time 0 to infinity (AUC0–∞). The secondary PK parameters included time to Cmax (Tmax) and the elimination half-life (T1/2), the terminal exponential rate constant (λz), the apparent total body clearance (CL/F). Cmax and Tmax were observed directly from the original concentration–time data.
All subjects who received the study drug and for whom at least one PK parameter data was available were included in the PK analysis sets. The safety analysis sets included subjects who received at least one dose of famitinib or rifampin. Statistical analysis was performed using SAS 9.4 (SAS Inc., Cary, NC, USA). […] The measurement data were expressed as mean ± standard deviation (SD), and categorical variables were described by the percentage.

For data set [4] the following is noted: cited from earlier work; for Decrease of AUC when administered simultaneously with rifampin / Decrease of Cmax when administered simultaneously with rifampin: ref 21 (imitinib), 22 (gefitinib), 23 (erlotinib), 24 (afatinib).
The mark [5] stands for this setting: famitinib 25 mg with rifampin 600 mg vs alone.
The mark [6] stands for this setting: famitinib + rifampin period, individual subjects, LLOQ 0.050.
Where [7] appears, read: famitinib alone period, individual subjects.
Setting [8] is: male, human, plasma, po, 25 mg, famitinib 25 mg + rifampin, N = 20.
The mark [9] stands for this setting: male, human, plasma, po, 25 mg, famitinib 25 mg alone, N = 21.
Setting [10] is: healthy volunteers, vs sunitinib alone.

The structures appear in SMILES notation. Where “and” joins values, the source holds several entries; their conditions need not be identical. Equal values may be shown once.

T1 sequence (P08183 whole entry): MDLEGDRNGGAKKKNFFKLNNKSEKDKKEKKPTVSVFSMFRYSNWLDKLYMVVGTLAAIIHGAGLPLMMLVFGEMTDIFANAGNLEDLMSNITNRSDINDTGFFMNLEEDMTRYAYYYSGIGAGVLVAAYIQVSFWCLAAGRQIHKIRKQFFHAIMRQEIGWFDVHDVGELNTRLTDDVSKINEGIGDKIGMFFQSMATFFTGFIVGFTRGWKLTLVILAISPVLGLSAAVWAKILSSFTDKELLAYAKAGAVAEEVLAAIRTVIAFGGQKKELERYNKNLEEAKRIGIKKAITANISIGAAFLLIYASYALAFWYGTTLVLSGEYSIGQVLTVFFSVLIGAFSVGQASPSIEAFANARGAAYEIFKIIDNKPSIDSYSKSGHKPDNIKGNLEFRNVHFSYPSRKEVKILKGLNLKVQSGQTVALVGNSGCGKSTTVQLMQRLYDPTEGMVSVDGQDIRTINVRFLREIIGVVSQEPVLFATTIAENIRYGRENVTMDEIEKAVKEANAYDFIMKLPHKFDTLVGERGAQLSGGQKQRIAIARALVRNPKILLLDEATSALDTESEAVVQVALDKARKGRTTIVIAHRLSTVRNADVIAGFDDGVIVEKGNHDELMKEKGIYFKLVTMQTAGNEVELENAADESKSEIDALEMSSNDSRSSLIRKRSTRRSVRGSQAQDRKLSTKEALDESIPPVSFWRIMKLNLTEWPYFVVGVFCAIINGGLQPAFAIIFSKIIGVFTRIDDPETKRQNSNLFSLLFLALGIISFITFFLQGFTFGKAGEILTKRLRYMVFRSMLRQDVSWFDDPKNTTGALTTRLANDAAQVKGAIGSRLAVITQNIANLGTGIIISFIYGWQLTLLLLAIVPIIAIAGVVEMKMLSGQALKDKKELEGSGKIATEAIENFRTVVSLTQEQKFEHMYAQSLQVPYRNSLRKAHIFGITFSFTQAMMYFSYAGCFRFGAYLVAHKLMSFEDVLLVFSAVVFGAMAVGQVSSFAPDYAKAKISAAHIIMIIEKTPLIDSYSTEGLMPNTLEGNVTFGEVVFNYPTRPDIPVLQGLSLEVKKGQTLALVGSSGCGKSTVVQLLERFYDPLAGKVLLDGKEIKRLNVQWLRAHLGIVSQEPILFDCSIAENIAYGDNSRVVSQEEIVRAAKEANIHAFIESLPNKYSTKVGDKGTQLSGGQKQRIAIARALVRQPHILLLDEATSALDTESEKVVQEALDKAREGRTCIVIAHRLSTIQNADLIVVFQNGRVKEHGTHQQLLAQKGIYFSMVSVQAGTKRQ

As a reminder, the half-life is the time in which the quantity being followed falls by half. By AUC(0-t) is commonly meant exposure summed from dosing to a finite time, without extrapolation to infinity. Usually AUC(0-inf) stands for total exposure, with the tail of the curve extrapolated. A word on the Cmax: it is the maximum level reached in the sampled fluid or tissue. A word on the Tmax: it is the time at which the peak concentration occurs. Take `CCN(CC)CCN1CCc2[nH]c(/C=C3\C(=O)Nc4ccc(F)cc43)c(C)c2C1=O` [famitinib, Famitinib malate]: the “P-gp substrate, inducer or inhibitor” value on P-gp is “neither a substrate, an inducer or inhibitor”. Further, in data set [1] (25 mg famitinib, healthy subjects), the “Mean time to maximum concentration (Tmax)” value was 5.9 ± 3.8 h. In data set [1] (4–27 mg famitinib, cancer patients), the “Time of peak concentration (Cmax) after a single oral administration” value is 3.3 to 5.3 h. The “Effect of food on the pharmacokinetics” value in data set [1] was “minimal effect”. For the same molecule, in data set [1] (continuous dosing), the “Accumulation ratio (Day28/Day1) of AUC0–24 h” value is on record as 2.53 and the “Accumulation ratio (Day28/Day1) of Cmax” value is given as 2.15. Besides, the “Elimination via biliary-fecal route” value in data set [1] (human) is given as “approximately 56.3 % of the administered dose”. In addition, the “Pathway most important to metabolic clearance” value in the data set with CYP3A4 is listed as “CYP3A4-mediated N-desethylation is most important”. In addition, in data set [2], the “Subjects with treatment-related TEAEs” value was determined as 4.8%. Besides, the Tolerability entry in data set [2] (single dose famitinib 25 mg, alone and in combination with multiple doses of rifampin) is recorded as “well tolerated”. In addition, in data set [2] (whole study, 8/21 subjects, all grade 1–2), the “Subjects reporting treatment emergent adverse events (TEAEs)” value stood at 38.1%. In addition, the CL/F in data set [3] (famitinib 25 mg + rifampin, N = 20) was 61.4 (16.5) L/h. The CL/F in data set [3] (famitinib 25 mg alone, N = 21) is on record as 18.9 (18.0) L/h. Moreover, in data set [3] (setting [5]), the “Decrease of geometric mean AUC0–t in the presence of rifampin” value was 69%, the “Decrease of geometric mean AUC0–∞ in the presence of rifampin” value stood at 69% and the “Decrease of geometric mean Cmax in the presence of rifampin” value stood at 48%. Moreover, in data set [3] (setting [6]), the “Plasma concentration of famitinib, 144h” value is on record as “BLQ<0.050 ng / mL”; the “Plasma concentration of famitinib, 192h” value was “BLQ<0.050 ng / mL”; the “Plasma concentration of famitinib, before dosing” value is on record as “BLQ<0.050 ng / mL”. Besides, in data set [3] (setting [7]), the “Plasma concentration of famitinib, 1h” value was 12.172 ng/mL and 10.070 ng/mL and 23.342 ng/mL and 11.725 ng/mL and 7.749 ng/mL and 13.952 ng/mL and 8.453 ng/mL and 16.495 ng/mL and 11.559 ng/mL and 9.713 ng/mL and 14.845 ng/mL and 9.794 ng/mL and 13.641 ng/mL and 7.456 ng/mL and 5.075 ng/mL; the “Plasma concentration of famitinib, 2h” value is 19.290 ng/mL and 11.263 ng/mL and 27.171 ng/mL and 17.301 ng/mL and 11.179 ng/mL and 19.862 ng/mL and 16.456 ng/mL and 17.403 ng/mL and 19.212 ng/mL and 16.738 ng/mL and 25.161 ng/mL and 11.223 ng/mL and 13.668 ng/mL and 15.742 ng/mL and 7.198 ng/mL; the “Plasma concentration of famitinib, 3h” value was 24.870 ng/mL and 24.032 ng/mL and 35.652 ng/mL and 17.196 ng/mL and 13.891 ng/mL and 21.638 ng/mL and 20.909 ng/mL and 26.523 ng/mL and 20.328 ng/mL and 19.378 ng/mL and 25.658 ng/mL and 13.587 ng/mL and 23.069 ng/mL and 22.375 ng/mL and 13.449 ng/mL; the “Plasma concentration of famitinib, 4h” value was 28.028 ng/mL and 28.292 ng/mL and 40.156 ng/mL and 20.043 ng/mL and 16.081 ng/mL and 19.854 ng/mL and 21.159 ng/mL and 24.187 ng/mL and 24.994 ng/mL and 22.750 ng/mL and 36.134 ng/mL and 11.368 ng/mL and 18.316 ng/mL and 23.577 ng/mL and 15.599 ng/mL. Further, in data set [3] (setting [7]), the “Plasma concentration of famitinib, 5h” value is 34.268 ng/mL and 39.992 ng/mL and 39.262 ng/mL and 34.731 ng/mL and 23.153 ng/mL and 38.641 ng/mL and 37.246 ng/mL and 34.840 ng/mL and 39.863 ng/mL and 36.023 ng/mL and 38.105 ng/mL and 23.878 ng/mL and 27.444 ng/mL and 47.892 ng/mL; the “Plasma concentration of famitinib, 6h” value was 43.837 ng/mL and 41.218 ng/mL and 38.122 ng/mL and 30.476 ng/mL and 37.003 ng/mL and 33.261 ng/mL and 32.099 ng/mL and 44.461 ng/mL and 40.451 ng/mL and 44.411 ng/mL and 30.717 ng/mL and 31.790 ng/mL and 38.642 ng/mL; the “Plasma concentration of famitinib, 8h” value was 36.756 ng/mL and 37.274 ng/mL and 37.931 ng/mL and 31.453 ng/mL and 34.655 ng/mL and 28.227 ng/mL and 26.193 ng/mL and 38.443 ng/mL and 33.433 ng/mL and 40.722 ng/mL and 30.892 ng/mL and 27.531 ng/mL and 41.552 ng/mL. Besides, in data set [3] (famitinib alone period, individual subjects, LLOQ 0.050), the “Plasma concentration of famitinib, before dosing” value is “BLQ<0.050 ng / mL”. For the same molecule, the concentration at 6 h in data set [3] (human, plasma, oral, 25 mg, Plasma concentration of famitinib, famitinib alone period, individual subjects) turned out to be 44.3 ng/mL. Further, the concentration at 8 h in data set [3] (human, plasma, oral, 25 mg, Plasma concentration of famitinib, 8h, famitinib alone period, individual subjects) is 42.1 ng/mL. In data set [3] (human, plasma, oral, 25 mg, Plasma concentration of famitinib, 12h, famitinib alone period, individual subjects), this molecule registered a concentration at 12 h of 22.5 ng/mL. This molecule also showed a concentration at 24 h in data set [3] (human, plasma, oral, 25 mg, Plasma concentration of famitinib, 24h, famitinib alone period, individual subjects) of 14 ng/mL. The concentration at 48 h in data set [3] (human, plasma, oral, 25 mg, Plasma concentration of famitinib, 48h, famitinib alone period, individual subjects) turned out to be 7.26 ng/mL. In addition, the concentration at 6 h in data set [3] (human, plasma, oral, Plasma concentration of famitinib, famitinib + rifampin period, individual subjects) amounted to 22 ng/mL. Moreover, the concentration at 144 h in data set [3] (human, plasma, oral, Plasma concentration of famitinib, 144h, famitinib + rifampin period, individual subjects, LLOQ 0.050) is 0.063 ng/mL. In data set [3] (male, human, plasma, po, 25 mg), this molecule showed a half-life of 33.9 h. Also, in data set [3] (setting [8]), the AUC(0-t) stood at 405 ng·h/mL, the AUC(0-inf) is 407 ng·h/mL, the Tmax stood at 5.5 h and the k el is 1.08e-05 s⁻¹. Also, in data set [3] (setting [9]), the AUC(0-t) was determined as 1300 ng·h/mL, the AUC(0-inf) came to 1320 ng·h/mL, the Tmax came out at 6 h and the k el is 5.83e-06 s⁻¹. In data set [3] (male, human, plasma, po, 25 mg, famitinib 25 mg + steady-state rifampin 600 mg once daily, N = 20), the Cmax is 20.1 ng/mL. Besides, in data set [3] (male, human, plasma, po, 25 mg, famitinib 25 mg single oral dose alone, N = 21), the peak level (Cmax) was 38.7 ng/mL.

Consider `CO[C@H]1/C=C/O[C@@]2(C)Oc3c(C)c(O)c4c(O)c(c(/C=N/N5CCN(C)CC5)c(O)c4c3C2=O)NC(=O)/C(C)=C\C=C\[C@H](C)[C@H](O)[C@@H](C)[C@@H](O)[C@@H](C)[C@H](OC(C)=O)[C@@H]1C` [rifampin, Rifampicin], for which, in data set [2], the “Subjects with treatment-related TEAEs” value was 14.3%.

With `CN(C)C/C=C/C(=O)Nc1cc2c(Nc3ccc(F)c(Cl)c3)ncnc2cc1O[C@H]1CCOC1` [afatinib], in data set [4], the “Decrease of AUC when administered simultaneously with rifampin” value (“Decrease of AUC” for short) is 34% and the “Decrease of Cmax when administered simultaneously with rifampin” value (from here on “Decrease of Cmax”) is on record as 22%.

Take `CCN(CC)CCNC(=O)c1c(C)[nH]c(/C=C2\C(=O)Nc3ccc(F)cc32)c1C` [sunitinib]: in data set [4] (setting [10]), the “Fold reduction in AUC on coadministration with rifampin” value is given as 4.8 fold and the “Fold reduction in Cmax on coadministration with rifampin” value is reported as 2.3 fold.

As to `Cc1ccc(NC(=O)c2ccc(CN3CCN(C)CC3)cc2)cc1Nc1nccc(-c2cccnc2)n1` [imitinib], in data set [4], the “Decrease of AUC” value is given as 74% and the “Decrease of Cmax” value was 54%.

For the molecule `C#Cc1cccc(Nc2ncnc3cc(OCCOC)c(OCCOC)cc23)c1` [erlotinib], in data set [4], the “Decrease of AUC” value is on record as 69% and the “Decrease of Cmax” value is given as 39%.

As to `COc1cc2ncnc(Nc3ccc(F)c(Cl)c3)c2cc1OCCCN1CCOCC1` [gefitinib], in data set [4], the “Decrease of AUC” value is recorded as 83% and the “Decrease of Cmax” value is recorded as 65%.
